ChEMBL document CHEMBL3232937
Activity calls are given as the source filed them. The calls are words filed in the database; no cut-off is given here.

How the values were obtained:
[1] = biological target: T1, Casein kinase I isoform delta (Homo sapiens, UniProt P48730); details: at 10 µM
Target sequence in this assay (P48730 whole entry, looked up, canonical isoform): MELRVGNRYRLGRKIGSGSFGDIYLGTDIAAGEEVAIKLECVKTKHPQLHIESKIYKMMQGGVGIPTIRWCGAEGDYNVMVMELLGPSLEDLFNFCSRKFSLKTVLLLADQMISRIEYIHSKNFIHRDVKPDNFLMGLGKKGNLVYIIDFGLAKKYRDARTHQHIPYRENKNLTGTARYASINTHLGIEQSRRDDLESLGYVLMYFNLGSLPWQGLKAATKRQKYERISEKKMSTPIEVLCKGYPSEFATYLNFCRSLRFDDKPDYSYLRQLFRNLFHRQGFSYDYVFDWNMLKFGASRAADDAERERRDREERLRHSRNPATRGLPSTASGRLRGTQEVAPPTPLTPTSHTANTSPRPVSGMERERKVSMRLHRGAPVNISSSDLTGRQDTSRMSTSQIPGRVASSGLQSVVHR
Description: Inhibition of human recombinant CK-1delta using casein as substrate at 10 uM after 60 mins by Kinase-Glo assay relative to control

[2] = pampa
Description: Permeability of the compound by PAMPA

[3] = biological target: T1, Casein kinase I isoform delta; experiment: Inhibition of human recombinant CK-1delta using casein as substrate after 60 mins by Kinase-Glo assay
Target sequence in this assay (P48730 whole entry, canonical isoform): as the sequence (P48730 whole entry, looked up, canonical isoform) above

[4] = biological target: T1, Casein kinase I isoform delta; experiment: Competitive inhibition of human recombinant CK-1delta using casein as substrate at 0.25 to 0.5 uM by Lineweaver-Burk plot analysis in presence of ATP
Target sequence in this assay (P48730 whole entry, looked up, canonical isoform): as above

COc1ccc2nc(NC(=O)Cc3cccc(Cl)c3)sc2c1
inhibition [1]: > 60%

CCOc1ccc2nc(NC(=O)Cc3cccc(OC)c3)sc2c1
inhibition [1]: > 60%

COc1ccccc1CC(=O)Nc1nc2ccc(F)cc2s1
inhibition [1]: > 60%

COc1ccc2nc(NC(=O)Cc3ccccc3OC)sc2c1
inhibition [1]: > 60%

O=C(Cc1cccc(Cl)c1)Nc1nc2ccc(C(F)(F)F)cc2s1
permeability [2]: 11.2 ×10⁻⁶ cm/s | inhibition [1]: > 60%

CN1C(C(=O)Nc2ccccn2)=C(O)c2ccccc2S1(=O)=O [PIROXICAM]
permeability [2]: 0.5 ×10⁻⁶ cm/s

O=C(Cc1ccc(Cl)cc1)Nc1nc2ccccc2o1
inhibition [1]: > 60% | IC50 [3]: 4.11 µM

O=C(CC(c1ccccc1)c1ccccc1)Nc1nc2ccccc2s1
inhibition [1]: > 60%

O=C(Cc1cccc(C(F)(F)F)c1)Nc1nc2ccc(C(F)(F)F)cc2s1
permeability [2]: 6.4 ×10⁻⁶ cm/s | inhibition [1]: > 60%

O=C(Cc1ccccc1)Nc1nc2ccc(C(F)(F)F)cc2s1
permeability [2]: 4.4 ×10⁻⁶ cm/s | inhibition [1]: > 60%

CS(=O)(=O)c1ccc2nc(NC(=O)Cc3cccs3)sc2c1
IC50 [3]: 2.69 µM

COc1cc(CC(=O)Nc2nc3ccc(C(F)(F)F)cc3s2)cc(OC)c1OC
permeability [2]: 7.2 ×10⁻⁶ cm/s | inhibition [1]: > 60%

COc1ccccc1CC(=O)Nc1nc2ccc(OC(F)(F)F)cc2s1
inhibition [1]: > 60%

CCOC(=O)c1sc(NC(=O)CNC(=O)CC(c2ccccc2)c2ccccc2)nc1C
IC50 [3]: 3.79 µM

COc1ccccc1CC(=O)Nc1nc2ccc(C(F)(F)F)cc2s1
permeability [2]: 11.2 ×10⁻⁶ cm/s | inhibition [1]: > 60%

CNCCCN1c2ccccc2CCc2ccccc21 [DESIPRAMINE]
permeability [2]: 14.6 ×10⁻⁶ cm/s

COc1ccc(CC(=O)Nc2nc3ccc(OC)cc3s2)cc1
inhibition [1]: > 60%

COc1cc(OC)c(C=C2C(=O)Nc3ccccc32)c(OC)c1
inhibition [4]: Active

CCOC(=O)c1sc(NC(=O)CNC(=O)Cc2ccccc2)nc1C
IC50 [3]: 10.1 µM

CCOc1ccc2nc(NC(=O)C(c3ccccc3)c3ccccc3)sc2c1
inhibition [1]: > 60%

CCOc1ccc2nc(NC(=O)Cc3cccc(Cl)c3)sc2c1
inhibition [1]: > 60%

COc1cccc(CC(=O)Nc2nc3ccc(OC)cc3s2)c1
inhibition [1]: > 60%

CC(=O)c1sc(NC(=O)Cc2cccc(Cl)c2)nc1C
inhibition [1]: > 60% | IC50 [3]: 1.12 µM

O=C(Cc1ccc(Cl)cc1)Nc1nc2ccc(C(F)(F)F)cc2s1
permeability [2]: 9.6 ×10⁻⁶ cm/s | inhibition [1]: > 60%

COc1ccccc1CC(=O)Nc1nc2ccc(C)cc2s1
inhibition [1]: > 60%

CCOc1ccc2nc(NC(=O)Cc3ccccc3Cl)sc2c1
inhibition [1]: > 60%

Cc1ccc2nc(NC(=O)Cc3cccc(Cl)c3)sc2c1
permeability [2]: 5.6 ×10⁻⁶ cm/s | inhibition [1]: > 60%

CCOc1ccc2nc(NC(=O)Cc3ccc(Cl)c(Cl)c3)sc2c1
inhibition [1]: > 60%

O=C(Cc1cccc(Cl)c1)Nc1nc2ccc(OC(F)(F)F)cc2s1
inhibition [1]: > 60%

COc1ccc(OC)c(CC(=O)Nc2nc3ccc(C(F)(F)F)cc3s2)c1
inhibition [1]: > 60%

COc1ccc2nc(NC(=O)Cc3ccc(Cl)cc3)sc2c1
inhibition [1]: > 60%

O=C(Cc1ccccc1Cl)Nc1nc2ccc(C(F)(F)F)cc2s1
inhibition [1]: > 60%

CCOc1ccc2nc(NC(=O)Cc3ccc(OC)cc3)sc2c1
inhibition [1]: > 60%

COc1ccccc1CC(=O)Nc1nc2ccc(Cl)cc2s1
inhibition [1]: > 60%

CCOC(=O)c1sc(NC(=O)COCc2ccccc2)nc1C
inhibition [1]: > 60% | IC50 [3]: 7.38 µM

COc1ccc2nc(NC(=O)Cc3ccccc3Cl)sc2c1
inhibition [1]: > 60%

CCOc1ccc2nc(NC(=O)Cc3ccccc3OC)sc2c1
inhibition [1]: > 60%

CN(C)CCCN1c2ccccc2Sc2ccccc21 [PROMAZINE]
permeability [2]: 12.7 ×10⁻⁶ cm/s

COc1ccc(CC(=O)Nc2nc3ccc(C(F)(F)F)cc3s2)cc1
permeability [2]: 14.6 ×10⁻⁶ cm/s | inhibition [1]: > 60%

COc1cc(CC(=O)Nc2nc3ccc(OC(F)(F)F)cc3s2)cc(OC)c1OC
permeability [2]: 2.6 ×10⁻⁶ cm/s | inhibition [1]: > 60%

CCOC(=O)c1sc(NC(=O)CNC(=O)c2ccc(N3CCOCC3)cc2)nc1C
IC50 [3]: 9.31 µM

COc1ccc2nc(NC(=O)Cc3cc(OC)c(OC)c(OC)c3)sc2c1
inhibition [1]: > 60% | IC50 [3]: 1.12 µM

COc1ccc2nc(NC(=O)Cc3ccc(Cl)c(Cl)c3)sc2c1
inhibition [1]: > 60%

O=C(Cc1ccc(Cl)c(Cl)c1)Nc1nc2ccc(OC(F)(F)F)cc2s1
inhibition [1]: > 60%

COc1ccc(NC(=O)Nc2nc3ccc(C(F)(F)F)cc3s2)cc1
inhibition [1]: > 60%

O=C(Nc1nc2ccccc2s1)C(c1ccccc1)c1ccccc1
inhibition [1]: > 60%

O=C(Cc1ccc(Cl)c(Cl)c1)Nc1nc2ccc(C(F)(F)F)cc2s1
permeability [2]: 1.4 ×10⁻⁶ cm/s | inhibition [1]: > 60%

O=C(Cc1cccc(Cl)c1)Nc1nncs1
inhibition [1]: 20%

O=C(Cc1ccccc1)Nc1nc2ccccc2s1
inhibition [1]: > 60%

CCOc1ccc2nc(NC(=O)Cc3ccc(Cl)cc3)sc2c1
inhibition [1]: > 60% | IC50 [3]: 1.11 µM

COc1cccc(CC(=O)Nc2nc3ccc(C(F)(F)F)cc3s2)c1
permeability [2]: 11.2 ×10⁻⁶ cm/s | inhibition [1]: > 60%

CCOc1ccc2nc(NC(=O)Cc3cc(OC)c(OC)c(OC)c3)sc2c1
inhibition [1]: > 60%

COc1ccccc1CC(=O)Nc1nc2ccc(Br)cc2s1
inhibition [1]: > 60%

O=C(CCc1cccc(Cl)c1)Nc1nc2ccccc2s1
inhibition [1]: > 60%

CCOC(=O)c1sc(NC(=O)CNC(=O)c2ccccc2)nc1C
IC50 [3]: 7.45 µM
